The text below walks through data of BindingDB's records for PubMed 12533678 (Japanese Foundation For Cancer Research, 2003).

Series [1] is described as follows: TP_TRANSPORTER: drug resistance(SN-38) in BCRP-expressing K562 cells.
Series [2] in a line: TP_TRANSPORTER: drug resistance(Mitoxantrone) in BCRP-expressing K562 cells.

As to `CC/C(=C(/CC)c1ccc(O)cc1)c1ccc(O)cc1`, the IC50 in series [1] was over 500 nM; in series [2], 500 nM.

For `CC/C(=C(/c1ccc(OCCN(C)C)cc1)c1ccc(OCc2ccc([N+](=O)[O-])cc2)cc1)c1ccccc1`, the half-maximal inhibitory concentration (IC50) in series [1] was over 2000 nM; in series [2], 1500 nM.

As for `CC/C(=C(/c1ccc(OCCN(C)C)cc1)c1ccc(OCc2ccccc2)cc1)c1ccccc1`, the IC50 in series [1] and in series [2] was over 2000 nM each time.

As for `CCC(=O)Oc1ccc(/C(CC)=C(\CC)c2ccc(OC(=O)CC)cc2)cc1` [propanoic acid [4-[(E)-4-[4-(1-oxopropoxy)phenyl]hex-3-en-3-yl]phenyl] ester], the IC50 in series [1] and in series [2] was over 3000 nM in each case.
